Reference: US20120184504A1, “"The Use of a PAR-1 Antagonist in Combination with a P2Y12 ADP Receptor Antagonist for Inhibition of Thrombosis"” (priority 2009, published 2012)

How the values were obtained:
Format in all cases: in vivo, cynomolgus monkeys
[1] = test system: platelet aggregation induced by ADP (10 μM); experiment: Ex vivo whole blood platelet aggregation induced by ADP
Description: (§1) Animals instrumented to produce CFRs were administered SCH 602539, cangrelor, or a combination of SCH 602539 and cangrelor. The dosing regimens of SCH 602539 were selected to provide a broad range of inhibition of platelet aggregation induced by 1 μM thrombin receptor agonist peptide (TRAP), whereas the doses of cangrelor were selected to achieve 50%-60% inhibition of platelet aggregation induced by 10 μM ADP (the degree of inhibition obtained with clopidogrel). Group 1 received drug vehicle only (20% hydroxypropyl betacyclodextran or saline, 2 mL i.v.). Group 2 received SCH 602539 dissolved in 20% hydroxypropyl betacyclodextran administered as sequential i.v. boluses of 0.1, 0.3, or 1 mg/kg, at 30-minute intervals. Group 3 received cangrelor dissolved in saline and administered as an intravenous infusion of 0.1, 0.2, or 0.3 μg/kg/min for 30 minutes each. Group 4 received a combination of SCH 602539 bolus plus cangrelor infusion (at respective doses of: 1) 0.05 mg/kg+0.05 μg/kg/min; 2) 0.1 mg/kg+0.1 μg/kg/min; and 3) 0.15 mg/kg+0.1 μg/kg/min. The three dose regimens within each group were administered sequentially over the consecutive 30-minute periods coinciding with the re-induction of endothelial injury. Study drug or vehicle was administered after stable CFRs were achieved, and upon the completion of a 30-minute baseline CFR collection period, drug(s) or vehicle were administered incrementally (every 30 minutes) either as a bolus (SCH 602539) or as an infusion (cangrelor), and their effects on CFRs were monitored in the next three 30-minute observation periods. Blood samples (3 mL) were collected from the femoral arterial catheter at the end of each 30-minute observation period for assessment of ex vivo platelet aggregation and coagulation parameters.
(§2) Platelet aggregation studies were performed ex viva on blood samples obtained from the monkeys subjected to the Folts model, using a ChronoLog whole blood aggregometer (Model 540VS, Havertown, Pa.). Briefly, 0.5 mL of blood was incubated with 0.5 mL of normal saline at 37° C. in a cuvette containing a stir bar for 2 minutes. Platelet agonists used in this study included TRAP (3 μM), ADP (10 μM), the thromboxane A2 mimetic U46619 (10 μM), and collagen (3 μg/mL). Platelet aggregation was monitored for 5 minutes following the addition of the agonist. The peak aggregation response was recorded in ohms. In addition, standard coagulation parameters, including prothrombin time (PT), activated partial thromboplastin time (APTT), and activated clotting time (ACT), were assessed.

[2] = test system: platelet aggregation induced by thromboxane A2 mimetic U46619 (10 μM); experiment: Ex vivo whole blood platelet aggregation induced by U46619
Description: as §1, §2

[3] = test system: platelet aggregation induced by collagen (3 μg/mL); experiment: Ex vivo whole blood platelet aggregation induced by collagen
Description: as §1, §2

[4] = Prothrombin time (PT) in plasma, Folts model animals; details: for PT: i.v.; for effect on PT: tested doses
Description: as §1, §2
(§3) PT and APTT assays were performed with plasma, while the ACT assay was performed with whole blood. Data are presented as mean±SEM (n=5-6/group).

[5] = Activated partial thromboplastin time (APTT) in plasma, Folts model animals; details: for APTT: i.v.; for effect on APTT: tested doses
Description: as §1, §2, §3

[6] = Activated clotting time (ACT) in whole blood, Folts model animals; details: for ACT: i.v.; for effect on ACT: tested doses
Description: as §1, §2, §3

[7] = cangrelor 0.2 and 0.3 μg/kg/min
[8] = SCH 602539 0.3 mg/kg and 1 mg/kg

CSCCNc1nc(SCCC(F)(F)F)nc2c1ncn2[C@@H]1O[C@H](COP(=O)(O)OP(=O)(O)C(Cl)(Cl)P(=O)(O)O)[C@@H](O)[C@H]1O [Cangrelor]
Aggregation, ADP ([1]; Cangrelor 0.1 μg/kg/min, baseline 14 ± 3): 10 ± 2 ohms | Aggregation, ADP ([1]; Cangrelor 0.2 μg/kg/min, baseline 14 ± 3): 7 ± 1 ohms | Aggregation, ADP ([1]; Cangrelor 0.3 μg/kg/min, baseline 14 ± 3): 6 ± 1 ohms | Aggregation, U46619 ([2]; Cangrelor 0.1 μg/kg/min, baseline 15 ± 3): 12 ± 3 ohms | Aggregation, U46619 ([2]; Cangrelor 0.2 μg/kg/min, baseline 15 ± 3): 10 ± 4 ohms | Aggregation, U46619 ([2]; Cangrelor 0.3 μg/kg/min, baseline 15 ± 3): 10 ± 4 ohms | effect on aggregation stimulated by 10 μM U46619 [2, 7]: did not interfere | Aggregation, Collagen ([3]; Cangrelor 0.1 μg/kg/min, baseline 24 ± 3): 20 ± 3 ohms | Aggregation, Collagen ([3]; Cangrelor 0.2 μg/kg/min, baseline 24 ± 3): 20 ± 4 ohms | Aggregation, Collagen ([3]; Cangrelor 0.3 μg/kg/min, baseline 24 ± 3): 20 ± 3 ohms | effect on aggregation stimulated by 3 μg/mL collagen [3, 7]: did not interfere | inhibition of aggregation induced by collagen (discussion) ([3]; cangrelor, tested doses): modest numeric inhibition | PT ([4]; Cangrelor 0.1 μg/kg/min × 30 min, plasma, mean±SEM, baseline 10.6 ± 0.4): 10.4 ± 0.3 s | PT ([4]; Cangrelor 0.2 μg/kg/min × 30 min, baseline 10.6 ± 0.4): 10.8 ± 0.6 s | PT ([4]; Cangrelor 0.3 μg/kg/min × 30 min, baseline 10.6 ± 0.4): 10.7 ± 0.6 s | effect on PT [4]: no effect | APTT ([5]; Cangrelor 0.1 μg/kg/min × 30 min, plasma, baseline 22.5 ± 1.6): 23.6 ± 2.6 s | APTT ([5]; Cangrelor 0.2 μg/kg/min × 30 min, baseline 22.5 ± 1.6): 22.1 ± 1.3 s | APTT ([5]; Cangrelor 0.3 μg/kg/min × 30 min, baseline 22.5 ± 1.6): 22.2 ± 2.0 s | effect on APTT [5]: no effect | ACT ([6]; Cangrelor 0.1 μg/kg/min × 30 min, whole blood, baseline 77 ± 3.7): 79 ± 2.3 s | ACT ([6]; Cangrelor 0.2 μg/kg/min × 30 min, baseline 77 ± 3.7): 76 ± 1.7 s | ACT ([6]; Cangrelor 0.3 μg/kg/min × 30 min, baseline 77 ± 3.7): 74 ± 3.5 s | effect on ACT [6]: no effect

CCOC(=O)N[C@@H]1CC[C@@H]2[C@@H](C1)C[C@H]1C(=O)O[C@H](C)[C@H]1[C@H]2/C=C/c1ccc(-c2ccccn2)cn1 [SCH 602539]
Aggregation, ADP ([1]; SCH 602539 0.1 mg/kg, baseline 15 ± 3): 14 ± 2 ohms | effect on aggregation induced by 10 μM ADP [1, 8]: did not affect | Aggregation, ADP ([1]; SCH 602539 0.3 mg/kg, baseline 15 ± 3): 16 ± 3 ohms | Aggregation, ADP ([1]; SCH 602539 1.0 mg/kg, baseline 15 ± 3): 13 ± 4 ohms | Aggregation, U46619 ([2]; SCH 602539 0.1 mg/kg, baseline 20 ± 5): 17 ± 3 ohms | effect on aggregation induced by 10 μM U46619 [2, 8]: did not affect | Aggregation, U46619 ([2]; SCH 602539 0.3 mg/kg, baseline 20 ± 5): 19 ± 4 ohms | Aggregation, U46619 ([2]; SCH 602539 1.0 mg/kg, baseline 20 ± 5): 21 ± 5 ohms | Aggregation, Collagen ([3]; SCH 602539 0.1 mg/kg, baseline 27 ± 4): 26 ± 2 ohms | effect on aggregation induced by 3 μg/mL collagen [3, 8]: did not affect | Aggregation, Collagen ([3]; SCH 602539 0.3 mg/kg, baseline 27 ± 4): 24 ± 3 ohms | Aggregation, Collagen ([3]; SCH 602539 1.0 mg/kg, baseline 27 ± 4): 29 ± 5 ohms | PT ([4]; SCH 602539 0.1 mg/kg, bolus, plasma, baseline 11.6 ± 0.4): 11.5 ± 0.2 s | PT ([4]; SCH 602539 0.3 mg/kg, bolus, baseline 11.6 ± 0.4): 11.8 ± 0.4 s | PT ([4]; SCH 602539 1.0 mg/kg, bolus, baseline 11.6 ± 0.4): 12.8 ± 1.1 s | effect on PT [4]: no effect | APTT ([5]; SCH 602539 0.1 mg/kg, bolus, plasma, baseline 22.8 ± 1.7): 22.4 ± 1.5 s | APTT ([5]; SCH 602539 0.3 mg/kg, bolus, baseline 22.8 ± 1.7): 23.4 ± 2.2 s | APTT ([5]; SCH 602539 1.0 mg/kg, bolus, baseline 22.8 ± 1.7): 25.4 ± 4.9 s | effect on APTT [5]: no effect | ACT ([6]; SCH 602539 0.1 mg/kg, bolus, whole blood, baseline 79 ± 5.9): 73 ± 2.2 s | ACT ([6]; SCH 602539 0.3 mg/kg, bolus, baseline 79 ± 5.9): 71 ± 4.4 s | ACT ([6]; SCH 602539 1.0 mg/kg, bolus, baseline 79 ± 5.9): 67 ± 4.9 s | effect on ACT [6]: no effect
